# Measured values as given in patent US10358446B2, “Bruton's tyrosine kinase inhibitors” (Zibo Biopolar Changsheng Pharmaceutical Co. Ltd., priority 2015, dated 2019).
# Biological target: BTK (Homo sapiens (Human), UniProt Q06187)
# Test: Btk kinase assay (HTRF)
# Type: biochemical
# Details: [ATP]=80 μM, BTK=3.4 nM; read-out: BTK Inhibition
# Experimental: Btk kinase activity was determined using a homogenous time resolved fluorescence (HTRF) methodology. Measurements were performed in a reaction volume of 15 μL using 384-well assay plates. Kinase enzyme, inhibitor, ATP and 1 μM peptide substrate were incubated in a reaction buffer compose of Hepes 50 mM (pH7.0), NaN3 0.02%, BSA 0.01%, Orthocanadate 0.1 mM. After one hour, the kinase reaction was quenched by the addition of […] antibody and XL-665 in 1× Detection buffer containing 60 mM EDTA (Cisbio), and the mixture was allowed to incubate for one hour. The HTRF signal was measured on a multimode plate reader (EnVision® Multilabel Reader, Perkin Elmer) with an excitation wavelength (λEx) of 330 nm and detection wavelengths (λEm) of 615 and 665 nrm. Activity was determined by the ratio of the fluorescence at 665 nm to that at 615 nm. For each compound, enzyme activity as measured at various concentrations of compound, Negative control reactions were performed in the absence of inhibitor in two replicates and eight no enzyme controls were used to determine baseline fluorescence levels. IC50s were obtained according to the equation: […] For BTK assay, [ATP]=80 μM, BTK=3.4 nM.
# Sequence of BTK (Q06187 whole entry, species assumed): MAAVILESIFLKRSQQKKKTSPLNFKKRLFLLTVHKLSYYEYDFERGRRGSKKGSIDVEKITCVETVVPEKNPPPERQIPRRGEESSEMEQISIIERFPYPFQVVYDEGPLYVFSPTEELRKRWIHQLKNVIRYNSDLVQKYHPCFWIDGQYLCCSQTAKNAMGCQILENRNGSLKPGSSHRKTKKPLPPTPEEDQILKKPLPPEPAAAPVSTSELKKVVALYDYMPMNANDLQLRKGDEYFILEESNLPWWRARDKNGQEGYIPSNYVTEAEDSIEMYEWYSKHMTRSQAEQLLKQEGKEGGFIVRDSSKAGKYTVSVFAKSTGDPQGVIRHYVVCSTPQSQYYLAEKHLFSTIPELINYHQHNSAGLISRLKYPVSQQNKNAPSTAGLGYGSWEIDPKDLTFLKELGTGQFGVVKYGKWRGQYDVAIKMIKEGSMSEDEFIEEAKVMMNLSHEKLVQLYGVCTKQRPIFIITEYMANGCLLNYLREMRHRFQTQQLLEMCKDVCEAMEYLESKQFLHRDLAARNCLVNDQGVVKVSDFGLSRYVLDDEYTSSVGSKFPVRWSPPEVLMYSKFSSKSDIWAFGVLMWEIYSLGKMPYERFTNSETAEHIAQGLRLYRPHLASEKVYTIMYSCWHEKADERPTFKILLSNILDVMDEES
row,IC50,Compound
1,10 to 100 nM,"C=CC(=O)Nc1cccc(-n2c(=O)n(-c3ccc(Oc4cccc(Cl)c4)cc3)c3cnccc32)c1 [Example 69, N-(3-(3-(4-(3-chlorophenoxy)phenyl)-2-oxo-2,3-dihydro-1H-imidazo[4,5-c]pyridin-1-yl)phenyl)acrylamide]"
2,100 to 1000 nM,"C=CC(=O)N1CC[C@@H](n2c(=O)n(-c3cccc(-c4ccccc4)c3)c3cnccc32)C1 [Example 277, (R)-3-([1,1′-biphenyl]-3-yl)-1-(1-acryloylpyrrolidin-3-yl)-1H-imidazo[4,5-c]pyridin-2(3H)-one]"
3,10 to 100 nM,"C=CC(=O)N1CC[C@@H](n2c(=O)n(-c3ccc(OCc4ccccc4C(F)(F)F)cc3)c3cnccc32)C1 [Example 210, (R)-1-(1-acryloylpyrrolidin-3-yl)-3-(4-((2-(trifluoromethyl)benzyl)oxy)phenyl)-1H-imidazo[4,5-c]pyridine-2(3H)-one]"
4,10 to 100 nM,"C=CC(=O)Nc1cccc(-n2c(=O)n(-c3ccc(Oc4cccc(C)c4)c(Cl)c3)c3cnccc32)c1 [Example 144, N-(3-(3-(3-chloro-4-(m-tolyloxy)phenyl)-2-oxo-2,3-dihydro-1H-imidazo[4,5-c]pyridin-1-yl)phenyl)acrylamide]"
5,1000 to 10000 nM,"C=C(C)C(=O)N1CC[C@@H](n2c(=O)n(-c3ccc(Oc4ccccc4)cc3)c3cnccc32)C1 [Example 28, (R)-1-(1-methacryloylpyrrolidin-3-yl)-3-(4-phenoxyphenyl)-1H-imidazo[4,5-c]pyridin-2(3H)-one]"
6,100 to 1000 nM,"C=CC(=O)N1CC[C@@H](n2c(=O)n(-c3ccc(OCc4ccc(F)cc4F)c(Cl)c3)c3cnccc32)C1 [Example 202, (R)-1-(1-acryloylpyrrolidin-3-yl)-3-(3-chloro-4-((2,4-difluorobenzyl)oxy)phenyl)-1H-imidazo[4,5-c]pyridin-2(3H)-one]"
7,10 to 100 nM,"C=CC(=O)N1CC[C@@H](n2c(=O)n(-c3cccc(Oc4cccc(F)c4C)c3)c3cnccc32)C1 [Example 55, (R)-1-(1-acryloylpyrrolidin-3-yl)-3-(3-(3-fluoro-2-methylphenoxy)phenyl)-1H-imidazo[4,5-c]pyridin-2(3H)-one]"
8,10 to 100 nM,"C=CC(=O)Nc1cccc(-n2c(=O)n(-c3ccc(C(=O)NCc4ccc(F)cc4)cc3)c3cnccc32)c1 [Example 249, 4-(1-(3-acrylamidophenyl)-2-oxo-1H-imidazo[4,5-c]pyridin-3(2H)-yl)-N-(4-fluorobenzyl)benzamide]"
9,10 to 100 nM,"C=CC(=O)N1CCC[C@@H](n2c(=O)n(-c3ccc(Oc4cccc(Cl)c4)cc3)c3cnccc32)C1 [Example 106, (R)-1-(1-acryloylpiperidin-3-yl)-3-(4-(3-chlorophenoxy)phenyl)-1H-imidazo[4,5-c]pyridin-2(3H)-one]"
10,100 to 1000 nM,"C=CC(=O)N1CC[C@H](n2c(=O)n(-c3ccc(NC(=O)c4ccc(C)c(C(F)(F)F)c4)cc3)c3cnccc32)C1 [Example 269, (S)-N-(4-(1-(1-acryloylpyrrolidin-3-yl)-2-oxo-1H-imidazo[4,5-c]pyridin-3(2H)-yl)phenyl)-4-methyl-3-(trifluoromethyl)benzamide]"
11,100 to 1000 nM,"C=CC(=O)Nc1cccc(-n2c(=O)n(-c3cccc(-c4ccc(C)cc4)c3)c3cnccc32)c1 [Example 272, N-(3-(3-(4′-methyl-[1,1′-biphenyl]-3-yl)-2-oxo-2,3-dihydro-1H-imidazo [4,5-c]pyridin-1-yl)phenyl)acrylamide]"
12,10 to 100 nM,"C=CC(=O)N1CC[C@@H](n2c(=O)n(-c3ccc(Oc4cccc(C(C)C)c4)cc3)c3cnccc32)C1 [Example 153, (R)-1-(1-acryloylpyrrolidin-3-yl)-3-(4-(3-isopropylphenoxy)phenyl)-1H-imidazo[4,5-c]pyridin-2(3H)-one]"
13,1000 to 10000 nM,"C=CC(=O)Nc1cccc(-n2c(=O)n(-c3ccc(Oc4cccc(Cl)c4)c(C)c3)c3cnccc32)c1 [Example 154, N-(3-(3-(4-(3-chlorophenoxy)-3-methylphenyl)-2-oxo-2,3-dihydro-1H-imidazo[4,5-c]pyridin-1-yl)phenyl)acrylamide]"
14,100 to 1000 nM,"C=CC(=O)Nc1cccc(-n2c(=O)n(-c3ccc(OCc4ccc(Cl)c(Cl)c4)cc3)c3cnccc32)c1 [Example 218, N-(3-(3-(4-((3,4-dichlorobenzyl)oxy)phenyl)-2-oxo-2,3-dihydro-1H-imidazo[4,5-c]pyridin-1-yl)phenyl)acrylamide]"
15,10 to 100 nM,"C=CC(=O)Nc1cccc(-n2c(=O)n(-c3ccc(Oc4cccc(Cl)c4C)cc3)c3cnccc32)c1 [Example 150, N-(3-(3-(4-(3-chloro-2-methylphenoxy)phenyl)-2-oxo-2,3-dihydro-1H-imidazo[4,5-c]pyridin-1-yl)phenyl)acrylamide]"
16,100 to 1000 nM,"C=CC(=O)Nc1cccc(-n2c(=O)n(-c3ccc(C(=O)NCc4cccc(OC)c4)cc3)c3cnccc32)c1 [Example 252, 4-(1-(3-acrylamidophenyl)-2-oxo-1H-imidazo[4,5-c]pyridin-3(2H)-yl)-N-(3-methoxybenzyl)benzamide]"
17,1000 to 10000 nM,"C=CC(=O)N1CC[C@@H](n2c(=O)n(-c3ccc(OCc4ccc(F)c(F)c4)cc3)c3cnccc32)C1 [Example 214, (R)-1-(1-acryloylpyrrolidin-3-yl)-3-(4-((3,4-difluorobenzyl)oxy)phenyl)-1H-imidazo[4,5-c]pyridin-2(3H)-one]"
18,10 to 100 nM,"C=CC(=O)Nc1cccc(-n2c(=O)n(-c3ccc(NC(=O)c4ccccc4OC)cc3)c3cnccc32)c1 [Example 258, N-(4-(1-(3-acrylamidophenyl)-2-oxo-1H-imidazo[4,5-c]pyridin-3(2H)-yl)phenyl)-2-methoxybenzamide]"
19,100 to 1000 nM,"C=CC(=O)Nc1cccc(-n2c(=O)n(-c3ccc(NC(=O)c4ccccc4C(F)(F)F)cc3)c3cnccc32)c1 [Example 262, N-(4-(1-(3-acrylamidophenyl)-2-oxo-1,2-dihydro-3H-imidazo[4,5-c]pyridin-3-yl)phenyl)-2-(trifluoromethyl)benzamide]"
20,10 to 100 nM,"C=CC(=O)N1CC[C@@H](n2c(=O)n(-c3ccc(Oc4cccc(F)c4)cc3)c3cnccc32)C1 [Example 84, (R)-1-(1-acryloylpyrrolidin-3-yl)-3-(4-(3-fluorophenoxy)phenyl)-1H-imidazo[4,5-c]pyridin-2(3H)-one]"
21,10 to 100 nM,"C=CC(=O)N1CC[C@@H](n2c(=O)n(-c3ccc(Oc4cccc(Cl)c4)cc3)c3cnccc32)C1 [Example 72, (R)-1-(1-acryloylpyrrolidin-3-yl)-3-(4-(3-chlorophenoxy)phenyl)-1H-imidazo[4,5-c]pyridin-2(3H)-one]"
22,≤ 10 nM,"C=CC(=O)N1CC[C@@H](n2c(=O)n(-c3ccc(Oc4cccc(OC(C)C)c4)cc3)c3cnccc32)C1 [Example 25, (R)-1-(1-acryloylpyrrolidin-3-yl)-3-(4-(3-isopropoxyphenoxy)phenyl)-1H-imidazo[4,5-c]pyridin-2(3H)-one]"
23,≤ 10 nM,"C=CC(=O)N1CC[C@@H](n2c(=O)n(-c3ccc(Oc4cccc(F)c4)c(Cl)c3)c3cnccc32)C1 [Example 41, (R)-1-(1-acryloylpyrrolidin-3-yl)-3-(3-chloro-4-(3-fluorophenoxy)phenyl)-1H-imidazo[4,5-c]pyridin-2(3H)-one]"
24,1000 to 10000 nM,"C=CC(=O)Nc1cccc(-n2c(=O)n(-c3ccc(C(=O)Nc4cccc(C(F)(F)F)c4)cc3)c3cnccc32)c1 [Example 251, 4-(1-(3-acrylamidophenyl)-2-oxo-1H-imidazo[4,5-c]pyridin-3(2H)-yl)-N-(3-(trifluoromethyl)phenyl)benzamide]"
